Values quoted from earlier work, collected in patent publication US20230255882A1, “LONG-LASTING RESORBABLE SUBCUTANEOUS IMPLANT WITH SUSTAINED RELEASE OF PRE-CONCENTRATED PHARMACOLOGICALLY ACTIVE SUBSTANCE IN POLYMER FOR THE TREATMENT OF PARKINSONS DISEASE” (priority 2020, published 2023).

Test system: Parkinson's disease
Conditions: intramuscular injection, 25 mg twice a week

In the case of NC(=O)C1=CN([C@@H]2O[C@H](COP(=O)(O)OP(=O)(O)OC[C@H]3O[C@@H](n4cnc5c(N)ncnc54)[C@H](OP(=O)(O)O)[C@@H]3O)[C@@H](O)[C@H]2O)C=CC1 [NADPH], the motor symptoms is listed as “significant improvement in motor symptoms”.
